Assay results taken from patent US20070134261A1, “Effectors of innate immunity” (priority 2001, published 2007).
In brackets after ≈: the same amount, converted by molar mass. Starred links: 1 amine or outer side, 2 acyl side, 3 side chain; linkers in the order of their positions; H or OH if unused. Positions of bridges follow the written chain, without caps; N, C: chain ends. Non-standard residues stand in square brackets, D forms with d. Residues, ends and D or L forms follow the SMILES beside them. Chains are numbered I, II in the order given. Actinocin(9to1) = Cc1c2oc3c(C)ccc(C(=O)[*:1])c3nc-2c(C(=O)[*:2])c(N)c1=O; NMeV = CN[C@H](C(=O)O)C(C)C; Sar = CNCC(=O)O

Key:
[1] = test system: Human monocytic cells, THP-1; assay: LPS-induced TNFα secretion by THP-1 cells (ELISA)
THP-1 cells [2] = test system: THP-1 cells
[3] = format: cell-based; conditions: overnight, 96-well plate
[4] = test system: human bronchial epithelial cells (HBE); assay: LDH release assay (Cytotoxicity Detection Kit); format: cell-based; conditions: 100 μg/ml, 24 hours; no peptide control 1.0 ± 0.05
Outline: (§1)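 Both read-outs were colorimetric at OD490 on HBE cells after 24 h with 100 μg of each peptide. The WST-1 assay reported viability through mitochondrial dehydrogenase cleavage of the tetrazolium salt. The LDH assay tested the removed supernatant for enzyme leaked from membrane-damaged cells.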

HBE cells [5] = assay: WST-1 assay (cell viability); format: cell-based, human
Outline: as §1

HBE cells [6] = conditions: 50 μg/ml, 4 h
Human Jurkat T cells = assay: SDF-1 induced migration of human Jurkat T cells (Transwell); format: cell-based; conditions: SDF-1 (100 ng/ml) alone, positive control 100%
Method: SDF-1, a C-X-C chemokine is a natural ligand for HIV-1 coreceptor-CXCR4. The chemokine receptors CXCR4 and CCR5 are considered to be potential targets for the inhibition of HIV-1 replication. […] The migration assays were performed as follows. Human Jurkat T cells were resuspended to 5×10^6/ml in chemotaxis medium (RPMI 1640/10 mM Hepes/0.5% BSA). Migration assays were performed in 24 well plates using […] polycarbonate Transwell inserts (Costar). Briefly, peptide or controls were diluted in chemotaxis medium and placed in the lower chamber while 0.1 ml cells (5×10^6/ml) was added to the upper chamber. After 3 hr at 37° C., the number of cells that had migrated into the lower chamber was determined using flow cytometry. The medium from the lower chamber was passed through a FACscan for 30 seconds, gating on forward and side scatter to exclude cell debris. The number of live cells was compared to a “100% migration control” in which 5×10^5/ml cells had been pipetted directly into the lower chamber and then counted on the FACscan for 30 seconds.

[7] = test system: RAW 264.7 mouse macrophage cells; format: cell-based; conditions: 20 μg/ml; 1 μg/ml AraLAM
Method: The ability of compounds to neutralize the stimulation of immune cells by both Gram-negative and Gram-positive bacterial products was tested. Bacterial products stimulate cells of the immune system to produce inflammatory cytokines and when unchecked this can lead to sepsis. Initial experiments utilized the murine macrophage cell line RAW 264.7, which was obtained from the American Type Culture Collection, (Manassas, Va.), the human epithelial cell line, A549, and primary macrophages derived from the bone marrow of BALB/c mice (Charles River Laboratories, Wilmington, Mass.). The cells from mouse bone marrow were cultured in 150-mm plates in Dulbecco's modified Eagle medium (DMEM; Life Technologies, Burlington, ON) supplemented with 20% FBS (Sigma Chemical Co, St. Louis, Mo.) and 20% L cell-conditioned medium as a source of M-CSF. Once macrophages were 60-80% confluent, they were deprived of L cell-conditioned medium for 14-16 h to render the cells quiescent and then were subjected to treatments with 100 ng/ml LPS or 100 ng/ml LPS+20 μg/ml peptide for 24 hours. The release of cytokines into the culture supernatant was determined by ELISA (R&D Systems, Minneapolis, Minn.). […] The samples were centrifuged for 5 min at 2000×g, the plasma was collected and then stored at −20° C. until being analyzed for IL-8 by ELISA (R&D Systems). […] Survival was monitored for 48 hours post injection.

NFκB subunits = assay: Translocation of NFκB subunits in nuclear extracts of THP-1 cells (Western blot, ELISA); format: cell-based, human; conditions: 60 min
THP-1 cells [8] = assay: Quantitative real-time PCR (qPCR) in THP-1 cells; format: cell-based, human; conditions: 4 μg/ml, within 1 hour of treatment (data not shown)
Method: Quantitative real-time PCR (qPCR)—Differential gene expression identified by microarray analysis was validated using quantitative real-time PCR (qPCR) using SuperScriptTM III Platinum® Two-Step qRT-PCR Kit with SYBR® Green (Invitrogen Life Technologies), as per the manufacturer's instructions, in the ABI PRISMS® 7000 sequence detection system (Applied Biosystems, Foster city, Calif., USA). Briefly, 1 μg of total RNA was reverse transcribed in a 20 μl reaction volume for 50 min at 42° C., the reaction was terminated by incubating for 5 min at 85° C. and then digested for 30 min at 37° C. with RNAse H. The PCR reaction was carried out in a 12.5 μl reaction volume containing 2.5 μl of 1/10 diluted cDNA template. A melting curve was performed to ensure that any product detected was specific to the desired amplicon. Fold changes were calculated after normalization to endogenous GAPDH and using the comparative Ct method (Pfaffl MW. A new mathematical model for relative quantification in real-time RT-PCR. Nucleic Acids Res 2001; 29:No. 9 e45).

## CC[C@@]1([C@@H]2O[C@@H]([C@H]3O[C@@](O)(CO)[C@H](C)C[C@@H]3C)C[C@@H]2C)CC[C@H]([C@]2(C)CC[C@]3(C[C@H](O)[C@@H](C)[C@@H]([C@@H](C)[C@@H](OC)[C@H](C)C(=O)O)O3)O2)O1 [Monensin]
[1]; LPS stimulation for 60 min
  TNFα within cells (cytoplasmic extracts): accumulation of TNFα within cells

## CC[C@H](C)[C@H](NC(=O)[C@H](CCCCN)NC(=O)[C@H](CCC(=O)O)NC(=O)[C@H](CCCCN)NC(=O)[C@H](CO)NC(=O)[C@H](CCCCN)NC(=O)[C@H](CCCNC(=N)N)NC(=O)[C@H](Cc1ccccc1)NC(=O)[C@H](Cc1ccccc1)NC(=O)[C@H](CC(=O)O)NC(=O)CNC(=O)[C@H](CC(C)C)NC(=O)[C@@H](N)CC(C)C)C(=O)NCC(=O)N[C@@H](CCCCN)C(=O)N[C@@H](CCC(=O)O)C(=O)N[C@@H](Cc1ccccc1)C(=O)N[C@@H](CCCCN)C(=O)N[C@@H](CCCNC(=N)N)C(=O)N[C@H](C(=O)N[C@H](C(=O)N[C@@H](CCC(N)=O)C(=O)N[C@@H](CCCNC(=N)N)C(=O)N[C@H](C(=O)N[C@@H](CCCCN)C(=O)N[C@@H](CC(=O)O)C(=O)N[C@@H](Cc1ccccc1)C(=O)N[C@@H](CC(C)C)C(=O)N[C@@H](CCCNC(=N)N)C(=O)N[C@@H](CC(N)=O)C(=O)N[C@@H](CC(C)C)C(=O)N[C@H](C(=O)N1CCC[C@H]1C(=O)N[C@@H](CCCNC(=N)N)C(=O)N[C@H](C(=O)N[C@@H](CCC(=O)O)C(=O)N[C@@H](CO)C(=O)O)[C@@H](C)O)C(C)C)[C@@H](C)CC)C(C)C)[C@@H](C)CC [SEQ ID NO: 1, reference compound]
THP-1 cells [2]
  cytotoxicity: not cytotoxic
[3]; Citobacter rhodensis
  MIC, C. rhod.: 8 µg/mL (≈ 1.78 µM)
[3]; Enterohaemorrhagic E. coli
  MIC, EHEC: 4 µg/mL (≈ 0.89 µM)
[3]; Escherichia coli
  MIC, E. coli: 32 µg/mL (≈ 7.12 µM)
[3]; Pseudomonas aeruginosa
  MIC, P. aerug.: 96 µg/mL (≈ 21.4 µM)
[3]; Salmonella enteritidis ssp. typhimurium
  MIC, S. typhim.: 64 µg/mL (≈ 14.2 µM)
[4]
  LDH Release (OD490 nm): 1.18 ± 0.05 OD490 nm
HBE cells [5]
  OD490 nm (WST-1 cell viability): 1.62 ± 0.34 OD490 nm
HBE cells [6]
  Ratio of SEQ ID NO: 1-treated:control, L41559 6-pyruvoyl-tetrahydropterin synthase/dimerization cofactor of hepatocyte nuclear factor 1 alpha: 0.20
  Ratio of SEQ ID NO: 1-treated:control, NM_000120 epoxide hydrolase 1, microsomal: 0.22

## SDF-1
Human Jurkat T cells; Experiment 1
  Migration (%): 32%
Human Jurkat T cells; Experiment 2
  Migration (%): 40%

## Polymyxin B
[4]
  LDH Release (OD490 nm): 1.21 ± 0.03 OD490 nm
[7]
  Inhibition of TNF-α: 15 ± 2%
HBE cells [5]
  OD490 nm (WST-1 cell viability): 1.30 ± 0.13 OD490 nm
NFκB subunits
  inhibition of LPS-induced p50 translocation: 82±5%
  inhibition of LPS-induced p65 translocation: 80±90%

## Cc1c2oc3c(C)ccc(C(=O)N[C@@H]4C(=O)N[C@H](C(C)C)C(=O)N5CCC[C@H]5C(=O)N(C)CC(=O)N(C)[C@@H](C(C)C)C(=O)O[C@@H]4C)c3nc-2c(C(=O)N[C@@H]2C(=O)N[C@H](C(C)C)C(=O)N3CCC[C@H]3C(=O)N(C)CC(=O)N(C)[C@@H](C(C)C)C(=O)O[C@@H]2C)c(N)c1=O [Actinomycin D] (I: T[dV]P[Sar][NMeV] / II: T[dV]P[Sar][NMeV]; ester I:1-I:C, II:1-II:C; linker I:N-II:N via Actinocin(9to1))
THP-1 cells [8]
  inhibition of LPS-induced transcription of TNFα and TNFAIP2 genes: more than 96%
[1]; 4 μg/ml, LPS-stimulated THP-1 cells
  reduction of TNFα release: 97.6%
